Data reported in ChEMBL document CHEMBL5154807, “Design and development of photoswitchable DFG-Out RET kinase inhibitors” (Eur J Med Chem, 2022).

Experiments:
[1] = target: T1, Proto-oncogene tyrosine-protein kinase receptor Ret (Homo sapiens, UniProt P07949); assay: Inhibition of human RET kinase using IGF1Rtide as substrate incubated for 40 mins and measured by ADP-Glo assay
[2] = Thermal stability of compound in DMSO assessed as half-life; format: physicochemical
[3] = Thermal stability of compound in water assessed as half-life; format: physicochemical
[4] = Drug degradation in 10 mM GSH after 20 hrs measured by LC-MS analysis; format: ADME; conditions: 10000 µM
[5] = target: T1, Proto-oncogene tyrosine-protein kinase receptor Ret; assay: Inhibition of full-length RET kinase expressed in human HEK293 cells and measured by NanoBRET assay; format: cell-based

T1 sequence (P07949 whole entry): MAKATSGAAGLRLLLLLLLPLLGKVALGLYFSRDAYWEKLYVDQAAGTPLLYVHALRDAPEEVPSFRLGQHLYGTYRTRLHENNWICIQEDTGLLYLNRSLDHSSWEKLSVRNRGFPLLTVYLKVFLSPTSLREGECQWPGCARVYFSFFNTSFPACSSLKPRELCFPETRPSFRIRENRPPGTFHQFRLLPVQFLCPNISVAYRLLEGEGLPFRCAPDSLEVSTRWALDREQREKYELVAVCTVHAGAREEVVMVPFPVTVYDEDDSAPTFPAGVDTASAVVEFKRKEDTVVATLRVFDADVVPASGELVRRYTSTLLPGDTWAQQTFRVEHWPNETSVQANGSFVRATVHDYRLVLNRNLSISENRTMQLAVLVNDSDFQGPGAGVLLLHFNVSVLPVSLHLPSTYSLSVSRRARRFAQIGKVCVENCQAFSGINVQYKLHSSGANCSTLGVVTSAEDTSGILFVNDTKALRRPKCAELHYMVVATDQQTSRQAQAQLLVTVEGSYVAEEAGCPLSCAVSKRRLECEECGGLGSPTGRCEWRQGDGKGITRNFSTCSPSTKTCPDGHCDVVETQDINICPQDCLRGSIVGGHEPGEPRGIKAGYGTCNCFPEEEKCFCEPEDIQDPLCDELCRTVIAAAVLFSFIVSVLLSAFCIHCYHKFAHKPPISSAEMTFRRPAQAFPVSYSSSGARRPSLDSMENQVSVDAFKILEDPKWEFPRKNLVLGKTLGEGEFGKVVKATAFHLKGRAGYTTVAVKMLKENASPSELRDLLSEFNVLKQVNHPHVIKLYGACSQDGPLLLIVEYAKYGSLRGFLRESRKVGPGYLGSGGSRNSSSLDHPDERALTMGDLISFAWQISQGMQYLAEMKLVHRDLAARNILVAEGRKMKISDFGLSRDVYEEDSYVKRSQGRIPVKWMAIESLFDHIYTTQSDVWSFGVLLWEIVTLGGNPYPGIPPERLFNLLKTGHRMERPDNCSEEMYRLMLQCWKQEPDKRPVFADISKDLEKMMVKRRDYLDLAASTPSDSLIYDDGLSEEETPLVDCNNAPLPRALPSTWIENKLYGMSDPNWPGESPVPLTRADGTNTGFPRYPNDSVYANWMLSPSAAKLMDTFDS

Row | SMILES | IC50 [1] [nM] | also measured
1 | CCCc1cccc2cc(/C=C\c3cccc(C(=O)Nc4ccc(CN5CCN(C)CC5)c(C(F)(F)F)c4)c3)cnc12 | > 500000 | 
2 | CC(C)n1nc(-c2ccc(NC(=O)Nc3cc(C(F)(F)F)ccc3F)cc2)c2c(N)ncnc21 | 1.3 | 
3 | COc1c(/C=C/c2cccc(C(=O)Nc3ccc(CN4CCN(C)CC4)c(C(F)(F)F)c3)c2)cnc2ccccc12 | 12.4 | 
4 | CN1CCN(Cc2ccc(NC(=O)c3cccc(/N=N/c4cnc5[nH]ccc5c4)c3)cc2C(F)(F)F)CC1 | 3 | half-life [2]: 15.7 days; half-life [3]: 26.2 days; Stability [4]: Stable
5 | CN1CCN(Cc2ccc(NC(=O)c3cccc(/C=C/c4cnc5ccccc5c4N4CCCC4)c3)cc2C(F)(F)F)CC1 | 66 | 
6 | Cc1cccc2cc(/C=C/c3cccc(C(=O)Nc4ccc(CN5CCN(C)CC5)c(C(F)(F)F)c4)c3)cnc12 | 257 | 
7 | CCc1cccc2cc(/C=C/c3cccc(C(=O)Nc4ccc(CN5CCN(C)CC5)c(C(F)(F)F)c4)c3)cnc12 | 1700 | 
8 | CN1CCN(Cc2ccc(NC(=O)c3ccc(F)c(/N=N/c4cnc5ccccc5c4)c3F)cc2C(F)(F)F)CC1 | 11 | half-life [2]: 32.5 days; half-life [3]: 1.58 days; Stability [4]: Stable
9 | CN1CCN(Cc2ccc(NC(=O)c3ccc(F)c(/N=N\c4cnc5ccccc5c4)c3F)cc2C(F)(F)F)CC1 | 17 | half-life [3]: 1.58 days
10 | CC(C)c1cccc2cc(/C=C/c3cccc(C(=O)Nc4ccc(CN5CCN(C)CC5)c(C(F)(F)F)c4)c3)cnc12 | 9800 | 
11 | CC(C)c1cccc2cc(/C=C\c3cccc(C(=O)Nc4ccc(CN5CCN(C)CC5)c(C(F)(F)F)c4)c3)cnc12 | > 500000 | 
12 | CN1CCN(Cc2ccc(NC(=O)c3cccc(/N=N/c4cnc5ccccc5c4)c3)cc2C(F)(F)F)CC1 | 9.5 | half-life [2]: 8.67 days; half-life [3]: 9.04 days; Stability [4]: Stable
13 | COc1c(/N=N/c2cccc(C(=O)Nc3ccc(CN4CCN(C)CC4)c(C(F)(F)F)c3)c2)cnc2ccccc12 | 24 | IC50 [5]: 920 nM; half-life [2]: 12.6 days; half-life [3]: 16.8 days
14 | CN1CCN(Cc2ccc(NC(=O)c3cccc(/C=C\c4cnc5ccccc5c4Nc4ccccc4)c3)cc2C(F)(F)F)CC1 | 49000 | 
15 | COc1c(/N=N\c2cccc(C(=O)Nc3ccc(CN4CCN(C)CC4)c(C(F)(F)F)c3)c2)cnc2ccccc12 | 363 | IC50 [5]: 3890 nM
16 | CCc1cccc2cc(/C=C\c3cccc(C(=O)Nc4ccc(CN5CCN(C)CC5)c(C(F)(F)F)c4)c3)cnc12 | 25000 | 
17 | CN1CCN(Cc2ccc(NC(=O)c3cccc(/C=C\c4cnc5ccccc5c4N(C)C)c3)cc2C(F)(F)F)CC1 | 2400 | 
18 | COc1c(/C=C\c2cccc(C(=O)Nc3ccc(CN4CCN(C)CC4)c(C(F)(F)F)c3)c2)cnc2ccccc12 | 1800 | 
19 | CN1CCN(Cc2ccc(NC(=O)c3cccc(/C=C/c4cnc5ccccc5c4N(C)C)c3)cc2C(F)(F)F)CC1 | 98 | 
20 | CN1CCN(Cc2ccc(NC(=O)c3cccc(/C=C/c4cnc5ccccc5c4)c3)cc2C(F)(F)F)CC1 | 7.8 | 
21 | CN1CCN(Cc2ccc(NC(=O)c3cccc(/N=N\c4cnc5ccccc5c4)c3)cc2C(F)(F)F)CC1 | 15 | 
22 | CN1CCN(Cc2ccc(NC(=O)c3cccc(/C=C\c4cnc5ccccc5c4)c3)cc2C(F)(F)F)CC1 | 900 | 
23 | Cc1cccc2cc(/C=C\c3cccc(C(=O)Nc4ccc(CN5CCN(C)CC5)c(C(F)(F)F)c4)c3)cnc12 | 12600 | 
24 | CCCc1cccc2cc(/C=C/c3cccc(C(=O)Nc4ccc(CN5CCN(C)CC5)c(C(F)(F)F)c4)c3)cnc12 | 5600 | 
25 | CN1CCN(Cc2ccc(NC(=O)c3cccc(/C=C\c4cnc5ccccc5c4N4CCCC4)c3)cc2C(F)(F)F)CC1 | 2200 | 
26 | CN1CCN(Cc2ccc(NC(=O)c3cccc(/C=C/c4cnc5ccccc5c4Nc4ccccc4)c3)cc2C(F)(F)F)CC1 | 2300 | 
